The source of these data is patent publication US10981879B2, “Thioether triazolopyridine and triazolopyrimidine inhibitors of myeloperoxidase” (BRISTOL-MYERS SQUIBB COMPANY, priority 2014, dated 2021).

In general, IC50 refers to the point on the concentration scale where inhibition reaches its midpoint.

Sequence of myeloperoxidase (MPO) (P05164 49-745): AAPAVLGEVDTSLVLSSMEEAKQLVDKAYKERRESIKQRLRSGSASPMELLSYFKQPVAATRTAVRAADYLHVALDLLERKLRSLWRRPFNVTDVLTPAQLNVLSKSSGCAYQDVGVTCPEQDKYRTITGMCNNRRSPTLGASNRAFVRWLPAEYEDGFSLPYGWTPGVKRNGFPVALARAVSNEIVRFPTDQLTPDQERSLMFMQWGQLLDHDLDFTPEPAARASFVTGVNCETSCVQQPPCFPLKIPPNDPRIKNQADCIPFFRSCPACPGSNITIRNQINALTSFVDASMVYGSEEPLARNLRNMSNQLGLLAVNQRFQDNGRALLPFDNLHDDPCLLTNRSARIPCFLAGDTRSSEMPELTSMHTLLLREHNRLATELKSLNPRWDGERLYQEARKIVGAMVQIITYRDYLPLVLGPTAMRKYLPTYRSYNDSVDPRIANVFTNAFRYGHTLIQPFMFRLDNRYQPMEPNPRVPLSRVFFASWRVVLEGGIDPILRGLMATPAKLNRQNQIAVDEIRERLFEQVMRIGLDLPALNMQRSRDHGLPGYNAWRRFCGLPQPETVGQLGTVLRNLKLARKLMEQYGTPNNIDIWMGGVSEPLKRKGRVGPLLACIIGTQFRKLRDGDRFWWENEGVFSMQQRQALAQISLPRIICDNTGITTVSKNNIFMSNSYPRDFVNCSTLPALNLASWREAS

This assay deals with myeloperoxidase (MPO) (Homo sapiens (Human), UniProt P05164). The assay is described as follows: MPO chlorination assay (APF). The conditions noted are these: MPO chlorination assay, ranges given; read-out: MPO chlorination assay IC50. The class given is biochemical. On the procedure:
MPO chlorination activity was measured in 100 mM KPi (pH 7.4) by utilizing the non-fluorescent reagent Aminophenyl fluorescein (APF, Invitrogen catalog #A36003). APF is cleaved by (—OCl) to yield the fluorescent compound fluorescein. Reactions were carried out in 50 μL total volume by adding a 25 μL mixture of 200 pM myeloperoxidase and 120 mM NaCl to 100 nL inhibitor in 100% DMSO in a 384 well, non-binding surface clear bottom plate (CORNING® #3655). Enzyme, inhibitor, and chloride were preincubated for ten minutes at rt.
After the ten minute preincubation, 25 μL of an APF mixture containing […], 120 mM NaCl and 10 μM H2O2 was added to the plate using the internal dispensing system of a Hammatsu FDSS 6000. Kinetic determinations were carried out immediately on the FDSS 6000 (3 minute kinetic read, 1 read every second, ex: 485 nm, em: 535 nm). IC50 values for inhibitors were calculated by taking the slope of the linear portion of the kinetic measurement (20 seconds to ˜80-120 secs). […]
[formula] where A=minimal Y value (activity level of inhibited sample), B=maximal Y value (activity level of uninhibited sample), C=Log IC50, D=Hill Slope, x=concentration of inhibitor. EPX Bromination Assay
For `Nc1cc(SCc2ccccc2)c2nn[nH]c2n1` [Example 1, 7-(Benzylthio)-3H-[1,2,3]triazolo[4,5-b]pyridin-5-amine], the IC50 is at most 0.06 µM.

As to `Nc1cc(SCc2ccccc2Cl)c2nn[nH]c2n1` [Example 4, 7-((2-chlorobenzyl)thio)-3H-[1,2,3]triazolo [4,5-b]pyridin-5-amine], the IC50 is at most 0.06 µM.

Regarding `Nc1cc(SCc2ccccc2C(F)(F)F)c2nn[nH]c2n1` [Example 5, 7-((2-(trifluoromethyl)benzyl)thio)-3H-[1,2,3] triazolo[4,5-b]pyridin-5-amine], the IC50 was at most 0.06 µM.

Turning to `Nc1cc(SCc2cccc(F)c2)c2nn[nH]c2n1` [Example 6, 7-((3-fluorobenzyl)thio)-3H-[1,2,3]triazolo [4,5-b]pyridin-5-amine], the IC50 was at most 0.06 µM.

In the case of `Nc1cc(SCc2ccc(Cl)cc2)c2nn[nH]c2n1` [Example 8, 7-((4-chlorobenzyl)thio)-3H-[1,2,3]triazolo [4,5-b]pyridin-5-amine], the IC50 is at most 0.06 µM.

`COc1ccc(CSc2cc(N)nc3[nH]nnc23)cc1` [Example 9, 7-((4-methoxybenzyl)thio)-3H-[1,2,3]triazolo [4,5-b]pyridin-5-amine]: the IC50 is at most 0.06 µM.

As to `Nc1cc(SCc2c(F)cccc2F)c2nn[nH]c2n1` [Example 10, 7-((2,6-Difluorobenzyl)thio)-3H-[1,2,3]triazolo[4,5-b]pyridin-5-amine], the IC50 is at most 0.06 µM.

With `N#Cc1ccc(-n2cccn2)cc1CSc1cc(N)nc2[nH]nnc12` [Example 12, 2-(((5-Amino-3H-[1,2,3]triazolo[4,5-b]pyridin-7-yl)thio)methyl)-4-(1H-pyrazol-1-yl)benzonitrile], the IC50 was at most 0.06 µM.

In the case of `Nc1cc(SC(CCCNCc2ccccc2)c2ccccc2)c2nn[nH]c2n1` (centres unmarked) [Example 14, 7-((4-(Benzylamino)-1-phenylbutyl)thio)-3H-[1,2,3]triazolo[4,5-b]pyridin-5-amine], the IC50 was at most 0.06 µM.

Consider `Nc1cc(SCc2cccc(CN3CCCC3)c2)c2nn[nH]c2n1` [Example 15, 7-((3-(Pyrrolidin-1-ylmethyl)benzyl)thio)-3H-[1,2,3]triazolo[4,5-b]pyridin-5-amine], for which the IC50 was at most 0.06 µM.

For the compound `Cn1nc(C2CC2)c(F)c1CSc1cc(N)nc2[nH]nnc12` [Example 16, 7-(((3-Cyclopropyl-4-fluoro-1-methyl-1H-pyrazol-5-yl)methyl)thio)-3H-[1,2,3]triazolo[4,5-b]pyridin-5-amine], the IC50 was 0.06 to 0.2 µM.

With `Cn1nc(-c2ccccc2)c(F)c1CSc1cc(N)nc2[nH]nnc12` [Example 17, 7-(((4-Fluoro-1-methyl-3-phenyl-1H-pyrazol-5-yl)methyl)thio)-3H-[1,2,3]triazolo[4,5-b]pyridin-5-amine], the IC50 was at most 0.06 µM.

For `CS(=O)(=O)c1cc(Cl)ccc1CSc1cc(N)nc2[nH]nnc12` [Example 18, 7-((4-chloro-2-(methylsulfonyl)benzyl)thio)-3H-[1,2,3]triazolo[4,5-b]pyridin-5-amine], the IC50 is at most 0.06 µM.

As for `Nc1cc(SCc2cc(F)ccc2F)c2nn[nH]c2n1` [Example 19, 7-((2,5-difluorobenzyl)thio)-3H-[1,2,3]triazolo[4,5-b] pyridin-5-amine], the IC50 is at most 0.06 µM.

For `N#Cc1ccc(F)cc1CSc1cc(N)nc2[nH]nnc12` [Example 20, 2-(((5-amino-3H-[1,2,3]triazolo[4,5-b]pyridin-7-yl)thio)methyl)-4-fluorobenzonitrile], the IC50 was at most 0.06 µM.

As for `N#Cc1cc(Br)ccc1CSc1cc(N)nc2[nH]nnc12` [Example 21, 2-(((5-amino-3H-[1,2,3]triazolo[4,5-b]pyridin-7-yl)thio)methyl)-5-bromobenzonitrile], the IC50 lay in the range of 0.06 to 0.2 µM.

As to `Cc1ccc(-c2nc(CSc3cc(N)nc4[nH]nnc34)c(C)s2)cc1` [Example 22, 7-(((5-methyl-2-(p-tolyl)thiazol-4-yl)methyl)thio)-3H-[1,2,3]triazolo[4,5-b]pyridin-5-amine], the IC50 was 0.06 to 0.2 µM.

Take `Nc1cc(SCc2c(F)cc(Cl)cc2F)c2nn[nH]c2n1` [Example 23, 7-((4-chloro-2,6-difluorobenzyl)thio)-3H-[1,2,3]triazolo[4,5-b]pyridin-5-amine]: the IC50 is at most 0.06 µM.

Regarding `Cc1cc(CSc2cc(N)nc3[nH]nnc23)c(Cl)nc1Cl` [Example 24, 7-(((2,6-dichloro-5-methylpyridin-3-yl)methyl)thio)-3H-[1,2,3]triazolo[4,5-b]pyridin-5-amine], the IC50 is 0.06 to 0.2 µM.

`Nc1cc(SCc2cccc(CO)n2)c2nn[nH]c2n1` [Example 25, (6-(((5-amino-3H-[1,2,3]triazolo[4,5-b]pyridin-7-yl)thio)methyl)pyridin-2-yl) methanol]: the IC50 was in the range of 0.06 to 0.2 µM.

On to `COC(=O)c1ncccc1CSc1cc(N)nc2[nH]nnc12` [Example 26, methyl 3-(((5-amino-3H-[1,2,3]triazolo[4,5-b]pyridin-7-yl)thio)methyl)picolinate], for which the IC50 fell in the range of 0.2 to 1 µM.

For `Nc1cccc(CSc2cc(N)nc3[nH]nnc23)n1` [Example 27, 7-(((6-aminopyridin-2-yl)methyl)thio)-3H-[1,2,3] triazolo[4,5-b]pyridin-5-amine], the IC50 was in the range of 0.2 to 1 µM.

Regarding `Nc1cc(SCc2ccccc2OC(F)(F)F)c2nn[nH]c2n1` [Example 29, 7-((2-(trifluoromethoxy)benzyl)thio)-3H-[1,2,3] triazolo[4,5-b]pyridin-5-amine], the IC50 is at most 0.06 µM.

For `CC(Sc1cc(N)nc2[nH]nnc12)c1ccccc1C(F)(F)F` (centres unmarked) [Example 30, 7-((1-(2-(trifluoromethyl)phenyl)ethyl)thio)-3H-[1,2,3]triazolo[4,5-b]pyridin-5-amine], the IC50 is 0.06 to 0.2 µM.

Turning to `COC(=O)c1ccc2nc(CSc3cc(N)nc4[nH]nnc34)ccc2c1` [Example 31, methyl 2-(((5-amino-3H-[1,2,3]triazolo[4,5-b]pyridin-7-yl)thio)methyl)quinoline-6-carboxylate], the IC50 lay within 0.2 to 1 µM.

For the compound `Nc1cc(SCc2cnn(Cc3ccccc3)c2)c2nn[nH]c2n1` [Example 32, 7-(((1-benzyl-1H-pyrazol-4-yl)methyl)thio)-3H-[1,2,3] triazolo[4,5-b]pyridin-5-amine], the IC50 fell in the range of 0.06 to 0.2 µM.

On to `Cn1nc(-c2ccccc2)cc1CSc1cc(N)nc2[nH]nnc12` [Example 33, 7-(((1-methyl-3-phenyl-1H-pyrazol-5-yl)methyl)thio)-3H-[1,2,3]triazolo[4,5-b] pyridin-5-amine], for which the half-maximal inhibitory concentration (IC50) fell in the range of 0.06 to 0.2 µM.

As to `Nc1cc(SCc2cn(-c3ccccc3)nn2)c2nn[nH]c2n1` [Example 34, 7-(((1-phenyl-1H-1,2,3-triazol-4-yl)methyl)thio)-3H-[1,2,3]triazolo[4,5-b]pyridin-5-amine], the IC50 was in the range of 0.06 to 0.2 µM.

Turning to `Nc1cc(SCc2ccccc2CS(=O)(=O)c2ccccc2)c2nn[nH]c2n1` [Example 35, 7-((2-((phenylsulfonyl)methyl)benzyl)thio)-3H-[1,2,3]triazolo[4,5-b]pyridin-5-amine], the IC50 is 0.06 to 0.2 µM.

As for `CCn1nc(C(F)(F)F)cc1CSc1cc(N)nc2[nH]nnc12` [Example 36, 7-(((1-ethyl-3-(trifluoromethyl)-1H-pyrazol-5-yl)methyl)thio)-3H-[1,2,3]triazolo[4,5-b] pyridin-5-amine], the IC50 was 0.2 to 1 µM.

On to `Cc1oc(-c2c(F)cc(F)cc2F)nc1CSc1cc(N)nc2[nH]nnc12` [Example 37, 7-(((5-methyl-2-(2,4,6-trifluorophenyl)oxazol-4-yl)methyl)thio)-3H-[1,2,3] triazolo[4,5-b]pyridin-5-amine], for which the IC50 was in the range of 0.2 to 1 µM.

Consider `Nc1cc(SC(c2ccccc2)C(F)(F)F)c2nn[nH]c2n1` (centres unmarked) [Example 38, 7-((2,2,2-trifluoro-1-phenylethyl)thio)-3H-[1,2,3] triazolo[4,5-b]pyridin-5-amine], for which the IC50 was 0.2 to 1 µM.

With `Nc1cc(SC(C(=O)c2ccccc2)c2ccccc2)c2nn[nH]c2n1` (centres unmarked) [Example 40, 2-((5-amino-3H-[1,2,3]triazolo[4,5-b]pyridin-7-yl)thio)-1,2-diphenylethanone], the IC50 lay in the range of 0.2 to 1 µM.

Regarding `CS(=O)(=O)c1cc(Br)cc(F)c1CSc1cc(N)nc2[nH]nnc12` [Example 42, 7-((4-bromo-2-fluoro-6-(methylsulfonyl)benzyl)thio)-3H-[1,2,3]triazolo[4,5-b]pyridin-5-amine], the IC50 is at most 0.06 µM.

As to `Nc1cc(SCc2c(F)ccc(Br)c2F)c2nn[nH]c2n1` [Example 43, 7-((3-bromo-2,6-difluorobenzyl)thio)-3H-[1,2,3]triazolo[4,5-b]pyridin-5-amine], the IC50 is at most 0.06 µM.

Take `CN(C)CCC(Sc1cc(N)nc2[nH]nnc12)c1ccccc1` (centres unmarked) [Example 44, 7-((3-(dimethylamino)-1-phenylpropyl)thio)-3H-[1,2,3]triazolo[4,5-b]pyridin-5-amine]: the IC50 lay within 0.06 to 0.2 µM.

Regarding `Nc1cc(SC(c2ccccc2)C(O)c2ccccc2)c2nn[nH]c2n1` (centres unmarked) [Example 46, 2-((5-amino-3H-[1,2,3]triazolo[4,5-b]pyridin-7-yl)thio)-1,2-diphenylethanol], the IC50 is 0.06 to 0.2 µM.

For `N#Cc1ccc(CSc2cc(N)nc3[nH]nnc23)c(F)c1` [Example 47, 4-(((5-amino-3H-[1,2,3]triazolo[4,5-b]pyridin-7-yl)thio)methyl)-3-fluorobenzonitrile], the IC50 was at most 0.06 µM.
